SMILES strings stand for the structures.

Assay [1] addresses G/T mismatch-specific thymine DNA glycosylase (Homo sapiens) (UniProt Q13569). To be noted: Compound Concentration 10.0 uM, Hit No.
Description: Inhibition of TDG by quantifying inhibition of TDG-mediated cleavage and dissociation of quenched duplex DNA oligonucleotides, measured as fluorescence at 594 nm. To generate a functional strand incision and increase turn-over this assay is coupled to APE1.
Assay [2] deals with DNA-3-methyladenine glycosylase (Homo sapiens) (UniProt P29372). The following applies: Compound Concentration 10.0 uM, Hit No.
Description: Inhibition of MPG by quantifying inhibition of MPG-mediated cleavage and dissociation of quenched duplex DNA oligonucleotides, measured as fluorescence at 594 nm. To generate a functional strand incision and increase turn-over this assay is coupled to APE1.
The target in assay [3] is Methyl-CpG-binding domain protein 4 (Homo sapiens) (UniProt O95243). The following applies: Compound Concentration 10.0 uM.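 Also: MBD4 activity read as fluorescence at 594 nm from cleavage and release of a quenched duplex DNA oligonucleotide, with APE1 coupled to incise the strand and raise turnover.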
Description: Inhibition of MBD4 by quantifying inhibition of MBD4-mediated cleavage and dissociation of quenched duplex DNA oligonucleotides, measured as fluorescence at 594 nm. To generate a functional strand incision and increase turn-over this assay is coupled to APE1.
In assay [4] the target is T1, Single-strand selective monofunctional uracil DNA glycosylase (Homo sapiens) (UniProt Q53HV7).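 Also: enzymatic SMUG1 assay coupled with APE1, reading fluorescence at 594 nm released when a quenched double-stranded DNA oligonucleotide substrate is cleaved and separated.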
T1 sequence (whole entry): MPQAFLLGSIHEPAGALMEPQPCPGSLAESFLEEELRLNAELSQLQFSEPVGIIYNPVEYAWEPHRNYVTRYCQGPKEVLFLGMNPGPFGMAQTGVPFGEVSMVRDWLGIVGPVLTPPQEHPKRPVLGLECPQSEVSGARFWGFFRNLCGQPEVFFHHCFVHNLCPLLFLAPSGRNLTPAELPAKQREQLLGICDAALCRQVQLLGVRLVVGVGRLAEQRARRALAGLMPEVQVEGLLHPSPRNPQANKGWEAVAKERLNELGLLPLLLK
To be noted: Compound Concentration 10.0 uM, Hit No.
Description: Inhibition of SMUG1 by quantifying inhibition of SMUG1-mediated cleavage and dissociation of quenched duplex DNA oligonucleotides, measured as fluorescence at 594 nm. To generate a functional strand incision and increase turn-over this assay is coupled to APE1.

Assay [5] addresses N-glycosylase/DNA lyase (Homo sapiens) (UniProt O15527). The following applies: Compound Concentration 10.0 uM, Hit No.
Description: Inhibition of OGG1 by quantifying inhibition of OGG1-mediated cleavage and dissociation of quenched duplex DNA oligonucleotides, measured as fluorescence at 594 nm. To generate a functional strand incision and increase turn-over this assay is coupled to APE1.
For assay [6], the target named is Endonuclease 8-like 1 (Homo sapiens) (UniProt Q96FI4). To be noted: Compound Concentration 10.0 uM, Hit No.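 Also: fluorescence at 594 nm from quenched duplex DNA oligonucleotides released by NEIL1 cleavage and strand separation, reported as reduction of this enzyme activity.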
Description: Inhibition of NEIL1 by quantifying inhibition of NEIL1-mediated cleavage and dissociation of quenched duplex DNA oligonucleotides, measured as fluorescence at 594 nm.
The target in assay [7] is Uracil-DNA glycosylase (Homo sapiens) (UniProt P13051). To be noted: Compound Concentration 10.0 uM, Hit No.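 Also: UNG excision on a quenched double-stranded DNA oligo probe, with APE1 added for strand incision and turnover, read as fluorescence at 594 nm as strands separate.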
Description: Inhibition of UNG by quantifying inhibition of UNG-mediated cleavage and dissociation of quenched duplex DNA oligonucleotides, measured as fluorescence at 594 nm. To generate a functional strand incision and increase turn-over this assay is coupled to APE1.
The target in assay [8] is T2, Endonuclease III-like protein 1 (Homo sapiens) (UniProt P78549).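 Also: enzyme assay tracking NTHL1 cutting and release of a quenched double-stranded DNA oligo substrate, read as fluorescence at 594 nm.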
T2 sequence (whole entry): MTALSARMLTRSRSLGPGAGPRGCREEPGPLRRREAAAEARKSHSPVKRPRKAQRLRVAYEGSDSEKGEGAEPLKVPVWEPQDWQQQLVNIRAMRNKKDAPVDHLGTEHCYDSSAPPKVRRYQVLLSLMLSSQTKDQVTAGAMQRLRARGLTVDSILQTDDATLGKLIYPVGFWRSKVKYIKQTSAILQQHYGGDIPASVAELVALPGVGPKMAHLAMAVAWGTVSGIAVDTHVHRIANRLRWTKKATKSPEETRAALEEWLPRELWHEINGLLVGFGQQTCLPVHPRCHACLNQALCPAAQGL
The following applies: Compound Concentration 10.0 uM, Hit No.
Description: Inhibition of NTHL1 by quantifying inhibition of NTHL1-mediated cleavage and dissociation of quenched duplex DNA oligonucleotides, measured as fluorescence at 594 nm.

The target of assay [9] is T3, Endonuclease 8-like 2 (Homo sapiens) (UniProt Q969S2).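 Also: fluorescence at 594 nm reports NEIL2 cutting and release of a quenched double-stranded DNA oligo substrate, reduced signal read as inhibition.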
T3 sequence (whole entry): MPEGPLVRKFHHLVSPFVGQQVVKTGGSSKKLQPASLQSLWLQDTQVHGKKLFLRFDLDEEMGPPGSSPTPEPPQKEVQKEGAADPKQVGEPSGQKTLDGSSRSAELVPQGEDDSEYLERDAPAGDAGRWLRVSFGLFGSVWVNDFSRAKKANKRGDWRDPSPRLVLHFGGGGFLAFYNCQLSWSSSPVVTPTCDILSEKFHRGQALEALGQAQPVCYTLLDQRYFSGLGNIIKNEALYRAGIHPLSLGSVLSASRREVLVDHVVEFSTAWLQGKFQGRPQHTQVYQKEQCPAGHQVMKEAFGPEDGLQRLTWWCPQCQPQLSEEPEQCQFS
To be noted: Compound Concentration 10.0 uM.
Description: Inhibition of NEIL2 by quantifying inhibition of NEIL2-mediated cleavage and dissociation of quenched duplex DNA oligonucleotides, measured as fluorescence at 594 nm.

Chain of Uracil-DNA glycosylase (Homo sapiens) (P13051 whole entry): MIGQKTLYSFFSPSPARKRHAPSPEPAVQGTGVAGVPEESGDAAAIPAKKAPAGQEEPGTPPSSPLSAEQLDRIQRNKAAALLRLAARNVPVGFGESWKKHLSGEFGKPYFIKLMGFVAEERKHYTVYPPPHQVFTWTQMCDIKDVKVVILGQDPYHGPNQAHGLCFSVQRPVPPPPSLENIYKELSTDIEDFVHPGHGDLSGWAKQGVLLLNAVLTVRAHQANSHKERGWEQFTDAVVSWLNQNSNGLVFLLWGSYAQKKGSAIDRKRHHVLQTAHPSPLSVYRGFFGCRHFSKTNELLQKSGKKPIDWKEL
Chain of DNA-3-methyladenine glycosylase (Homo sapiens) (P29372 whole entry, the tested form may be a part): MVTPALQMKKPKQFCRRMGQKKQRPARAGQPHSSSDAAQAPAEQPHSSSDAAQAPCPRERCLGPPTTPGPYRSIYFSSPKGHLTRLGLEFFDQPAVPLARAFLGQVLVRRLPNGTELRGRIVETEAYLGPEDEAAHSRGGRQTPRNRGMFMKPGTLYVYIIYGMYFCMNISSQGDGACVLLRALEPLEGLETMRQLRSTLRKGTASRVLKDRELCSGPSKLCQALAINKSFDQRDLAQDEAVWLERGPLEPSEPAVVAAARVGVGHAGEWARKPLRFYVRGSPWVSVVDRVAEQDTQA
Chain of Endonuclease 8-like 1 (Homo sapiens) (Q96FI4 whole entry): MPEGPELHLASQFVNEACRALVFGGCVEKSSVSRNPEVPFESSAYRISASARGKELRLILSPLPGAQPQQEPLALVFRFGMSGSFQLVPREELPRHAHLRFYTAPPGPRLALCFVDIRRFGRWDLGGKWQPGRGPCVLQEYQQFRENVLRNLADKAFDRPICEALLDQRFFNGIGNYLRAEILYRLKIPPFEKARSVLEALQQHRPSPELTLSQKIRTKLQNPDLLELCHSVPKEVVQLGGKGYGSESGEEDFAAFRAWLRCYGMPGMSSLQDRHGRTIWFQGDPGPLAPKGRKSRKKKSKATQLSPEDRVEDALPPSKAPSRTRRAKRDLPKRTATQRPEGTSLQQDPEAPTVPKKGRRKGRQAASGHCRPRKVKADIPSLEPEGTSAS
Chain of G/T mismatch-specific thymine DNA glycosylase (Homo sapiens) (Q13569 whole entry): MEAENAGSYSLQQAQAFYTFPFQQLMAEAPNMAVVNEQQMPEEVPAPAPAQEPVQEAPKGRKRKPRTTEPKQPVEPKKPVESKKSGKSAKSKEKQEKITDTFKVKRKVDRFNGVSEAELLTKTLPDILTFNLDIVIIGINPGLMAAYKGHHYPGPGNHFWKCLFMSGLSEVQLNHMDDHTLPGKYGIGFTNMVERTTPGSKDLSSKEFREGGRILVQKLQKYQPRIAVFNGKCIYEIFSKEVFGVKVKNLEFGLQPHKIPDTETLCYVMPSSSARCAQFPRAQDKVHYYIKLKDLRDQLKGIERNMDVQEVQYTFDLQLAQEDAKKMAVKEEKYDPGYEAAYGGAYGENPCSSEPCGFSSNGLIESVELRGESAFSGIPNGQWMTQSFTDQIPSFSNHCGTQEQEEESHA
Chain of N-glycosylase/DNA lyase (Homo sapiens) (O15527 whole entry): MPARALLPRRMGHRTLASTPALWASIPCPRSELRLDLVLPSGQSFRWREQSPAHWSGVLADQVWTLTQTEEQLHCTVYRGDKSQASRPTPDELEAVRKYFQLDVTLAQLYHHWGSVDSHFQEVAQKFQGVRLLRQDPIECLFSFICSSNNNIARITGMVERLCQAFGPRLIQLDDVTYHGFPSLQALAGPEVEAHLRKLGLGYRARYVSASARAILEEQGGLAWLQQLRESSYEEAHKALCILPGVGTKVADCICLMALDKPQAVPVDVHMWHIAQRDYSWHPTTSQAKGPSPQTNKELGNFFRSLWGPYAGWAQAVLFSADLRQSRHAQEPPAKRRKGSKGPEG
Chain of Methyl-CpG-binding domain protein 4 (Homo sapiens) (O95243 whole entry, the tested form may be a part): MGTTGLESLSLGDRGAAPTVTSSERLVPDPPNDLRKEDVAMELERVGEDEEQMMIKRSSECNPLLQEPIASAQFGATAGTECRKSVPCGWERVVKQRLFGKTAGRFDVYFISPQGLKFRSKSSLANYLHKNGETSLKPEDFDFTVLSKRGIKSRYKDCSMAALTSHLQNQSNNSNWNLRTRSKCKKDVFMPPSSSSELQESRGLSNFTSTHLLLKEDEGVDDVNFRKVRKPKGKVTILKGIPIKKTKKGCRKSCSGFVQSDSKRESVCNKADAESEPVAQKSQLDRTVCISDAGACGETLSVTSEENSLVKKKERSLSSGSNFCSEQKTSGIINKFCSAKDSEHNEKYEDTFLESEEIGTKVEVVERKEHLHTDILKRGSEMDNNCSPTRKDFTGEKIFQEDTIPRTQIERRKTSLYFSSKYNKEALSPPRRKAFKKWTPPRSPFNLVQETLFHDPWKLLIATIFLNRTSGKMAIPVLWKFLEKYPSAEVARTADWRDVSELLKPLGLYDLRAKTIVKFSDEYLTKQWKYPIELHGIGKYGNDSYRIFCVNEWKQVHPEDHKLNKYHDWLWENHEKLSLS

On to `Cc1[nH]cnc1CN1CCc2c(c3ccccc3n2C)C1=O`, for which the inhibition (usually the drop in the measured response relative to a control, in per cent) in assay [1] turned out to be 19%; in assay [2], 3.5%; in assay [3] (Hit No) it was 11.9%; in assay [4] it was 3.41%; in [5] it was 1.31%; in [6], 11.2%. The inhibition in [7] is -6.85%.

In the case of `N#Cc1c(Oc2cccc(OS(=O)(=O)CCCC(F)(F)F)c2)cccc1C(F)(F)F`, the inhibition in assay [1] was -4.05%; in assay [2], 8.15%; in [8] it was -1.91%; in assay [5] it was -7.69%; in [9] (Hit No) it was -7.74%; in [7], -1.27%.

For `Nc1nc(-c2ccco2)c2cnn(Cc3ccccc3F)c2n1`, the inhibition in assay [1] was -4.93%; in assay [2], -1.21%; in assay [3] (Hit No) it was -3.33%; in assay [6] it was -2.72%; in assay [7], -7.72%.

As to `CC[C@@H](C)Nc1nc(C)nc2c(-c3ccc(OC)nc3C)c(C)nn12`, the inhibition in [1] was 17.1%; in assay [2] it was 9.17%; in assay [3] (Hit No), 8.63%; in [4], 10.2%; in [5] it was -1.59%; in assay [9] (Hit No), 2.26%. The figures for the inhibition in assay [6] and in assay [7] were 4.1% and -5.14%, respectively.

With `COc1ccccc1N1CCN(CCCCNC(=O)c2ccc3ccccc3c2)CC1`, the inhibition in [1] amounted to 10.4%; in [2], 14.3%; in assay [3] (Hit No) it was 0.789%; in assay [5] it was 9.63%; in assay [9] (Hit No), 11%; in [6] it was 4.99%. The inhibition in assay [7] is -4.08%.

In the case of `C[C@H](NC(=O)CNC(=O)c1cccc(Cl)c1)c1ccccc1`, the inhibition in assay [1] was 6.8%; in [2] it was 13.7%; in assay [3] (Hit No), -8.91%; in assay [5], -9.41%; in assay [9] (Hit No) it was -8.97%; in assay [6], -1.54%.

In the case of `CCOc1ccccc1C(=O)NCC1(N2CCN(CC)CC2)CCCCC1`, the inhibition in assay [1] was 5.23%; in assay [2], -0.78%; in assay [3] (Hit No), -3.81%; in assay [4], -8.6%; in assay [9] (Hit No), 3.22%; in [6], -3.55%. Moreover, the inhibition in [7] is -8.16%.

In the case of `CN1CCCC(n2nc(Cc3ccc(Cl)cc3)c3ccccc3c2=O)CC1` (stereo unspecified), the inhibition is 14.5% in [1]; -9.23% in [2]; 1.52% in assay [4]; -0.805% in [5]; 0.515% in assay [9] (Hit No); -7.17% in assay [6]. In [7], the inhibition is -8.14%.

In the case of `CC1CCN(CC[C@H]2CCCN2S(=O)(=O)c2cccc(O)c2)CC1`, the inhibition in [1] is 2.43%; in assay [2] it was -7.22%; in assay [3] (Hit No), 6.36%; in assay [4], 3.5%; in [5], -3.4%; in assay [9] (Hit No) it was -5.22%. Moreover, the inhibition in assay [6] is 8.25%; in assay [7], -9.71%.

`Cc1ccc(OCC(O)C(C)NC(C)C)c2c1CCC2` (stereo unspecified): the inhibition in assay [1] was 8.49%; in assay [2], 6.31%; in assay [3] (Hit Yes), 134%; in assay [5], -9.41%; in assay [9] (Hit No), -0.983%; in assay [6] it was 7.65%.

Consider `COC(=O)C1=C(C)NC(C)=C(C(=O)OCCCN2CCC(c3ccccc3)(c3ccccc3)CC2)[C@H]1c1cccc([N+](=O)[O-])c1`, for which the inhibition in assay [1] is 35.3%; in assay [2] it was -9.35%; in [3] (Hit No), -5.72%; in [4] it was 9.7%; in assay [5] it was -5.2%; in [9] (Hit No) it was 13.7%. The inhibition in assay [7] is -9.34%.

Regarding `C[C@H](CO)Nc1nc(SCc2cccc(Cl)c2F)nc2[nH]c(=O)sc12`, the inhibition is 22% in [1]; 2.92% in assay [2]; 13.6% in assay [3] (Hit No); 6.22% in assay [4]; 5.5% in assay [5]; -2.98% in assay [9] (Hit No). Moreover, the inhibition in [6] was 8.99%; in [7] it was -8.73%.

Regarding `CCC(=O)NCC[C@@H]1CCc2ccc3c(c21)CCO3`, the inhibition was 9.54% in assay [1]; 4.81% in assay [2]; -9.72% in [3] (Hit No); -9.19% in assay [4]; 6.47% in assay [5]; 6% in assay [9] (Hit No). In addition, the inhibition is 10.6% in assay [6] and -9.69% in assay [7].

As for `OCc1cc(C(O)CNCCCCCCOCCCCc2ccccc2)ccc1O` (stereo unspecified), the inhibition was 6.25% in [1]; 0.951% in [2]; 11.4% in assay [8]; -5.95% in [5]; 4.01% in assay [9] (Hit No); 8.39% in [6]. In [7], the inhibition is -9.38%.

With `CSc1nc(NC2CCCC2)c([N+](=O)[O-])c(NC2CCCC2)n1`, the inhibition is 7.68% in [1]; -2.56% in assay [2]; 21% in assay [8]; -2.94% in [5]; 7.5% in assay [9] (Hit No); 2.61% in [6].

Regarding `CS(=O)(=O)c1ccc(C(=O)Nc2ccc(Cl)c(-c3ccccn3)c2)c(Cl)c1`, the inhibition in assay [1] was 6.01%; in assay [2], 3.65%; in assay [8], -9.8%; in assay [9] (Hit No) it was 5.76%; in [6], 3.5%.

For the compound `CC[C@H]1CN2CCc3cc(OC)c(OC)cc3[C@@H]2C[C@@H]1C[C@H]1NCCc2cc(OC)c(OC)cc21`, the inhibition in assay [1] is -0.514%; in [2], -9.31%; in assay [8], 3.39%; in [4], -7.35%; in assay [9] (Hit No), 4.51%; in assay [6], -0.5%.

Consider `C[C@H](CCC(=O)O)[C@H]1CC[C@H]2[C@@H]3CC[C@@H]4C[C@H](O)CC[C@]4(C)[C@H]3CC[C@]12C`, for which the inhibition in assay [1] is 21.8%; in assay [2], 15.2%; in assay [3] (Hit Yes) it was 140%; in assay [4], -9.19%; in assay [5], 4.17%; in [9] (Hit No), 8%. For the same compound, the inhibition in assay [6] is 10%; in assay [7], -8.43%.

On to `COC(=O)[C@H](CCCN=C(N)N)NC(=O)CCCc1c(-c2ccccc2)[nH]c2c(F)cc(F)cc12`, for which the inhibition in assay [1] is 16.3%; in assay [2] it was 5.31%; in [8] it was -5.41%; in [5], -3.54%; in assay [9] (Hit Yes), 38.2%; in [6] it was 5.58%. Moreover, in assay [7], the inhibition was -5.65%.

With `Cc1nn(C)c(C)c1-c1cccc2c1CC[C@H](N(C)C)C2`, the inhibition is -4.55% in assay [1]; -9.58% in [2]; 6.32% in assay [8]; -7.75% in assay [5]; -0.234% in assay [9] (Hit No); 1.87% in [6].

`Cc1cc(Cn2nnc3c(-c4ccco4)nc(N)nc32)ccc1N`: the inhibition was 17.6% in [1]; -3.71% in assay [2]; 4.16% in [3] (Hit No); -2.07% in assay [4]; 0.253% in [5]; 2.26% in assay [9] (Hit No). In addition, the inhibition in [6] is -2.58%.

As for `CC(C)(O)CCn1c(=O)n(C(=O)N[C@H](C(N)=O)C(C)(C)C)c2ccccc21`, the inhibition was 10.8% in assay [1]; -4.33% in assay [2]; -3.57% in assay [4]; -0.203% in [5]; 1.76% in assay [9] (Hit No); 2.61% in assay [6]. The inhibition in assay [7] is -9.98%.

In the case of `CCOc1ccc(Cc2nc3cc(C(=O)N(CC)CC)ccc3n2CC2CCCCC2)cc1`, the inhibition in assay [1] was 2.76%; in assay [2], -2.6%; in [4], 2.19%; in assay [5], 9.81%; in assay [9] (Hit No) it was 4.01%; in assay [6], 2.91%. For the same compound, the inhibition in assay [7] is -9.77%.

For the origin of these results see ChEMBL document CHEMBL5665443, “Enzyme Inhibitor Single Concentration assay results for EUbOPEN Chemogenomics Library” (2024).
